{"source": "patent US12268781B2", "about": "“Sustained-release pharmaceutical compositions comprising a therapeutic agent for treating dementia and uses thereof” (priority 2018, dated 2025)", "key": {"[1]": {"experiment": "In vitro release, plasma free system (dialysis bag in PBS)", "format": "physicochemical", "conditions": "PBS pH 7.4, 37 °C, within 2 hours", "description": "(§1) Two in vitro release systems were used in this study, the first system was the plasma free environment and the second system was the human plasma environment. To set up the first in vitro release system, 1.0 mL of liposomal rivastigmine formulation prepared according to Example 1 and 1.0 mL of free rivastigmine tartrate were placed in separate dialysis bags (Spectra/Pro*6 dialysis membrane, MWCO 50 kDa, Spectrum Labs) and both ends of the dialysis bags were sealed. To set up the second in vitro release system, 1.0 mL of liposomal rivastigmine formulation prepared according to Example 1 and 1.0 mL of free rivastigmine tartrate were placed in separate dialysis bags, each containing 1 mL of human plasma (Valley Biomedical, Inc.) and both ends of the dialysis bags were sealed. Each dialysis bag was immersed in 25 mL PBS at pH 7.4 in a 50-mL centrifuge tube and incubated in a water bath at 37±1° C. for 24 hours. At designated time points after incubation (1, 2, 4, 6 and 24 hours), 0.5 mL aliquot from the 25-mL PBS was sampled and 0.5 mL of fresh PBS was added to replace the sampling aliquot. Drug concentrations of the sampling aliquots at each time point were analyzed using high performance liquid chromatography (HPLC) to create the in vitro release profile."}, "[2]": {"experiment": "In vitro release, human plasma system (dialysis bag in PBS)", "format": "in vitro ADME", "conditions": "37 °C, within 4 hours", "description": "as §1"}, "[3]": {"experiment": "PK study of liposomal rivastigmine in rats, subcutaneous injection", "format": "in vivo, Sprague-Dawley rats", "description": "An in vivo PK evaluation of the liposomal rivastigmine formulation was performed using 7-8 weeks old female Sprague-Dawley rats. The rats were housed in a holding room which operated on a 12-hr light/12-hr dark circadian cycle with free access to water and food.\nThe rats were divided into two groups (n=3 in each group), one group received subcutaneous injection of 10 mg/kg of free rivastigmine tartrate, prepared by dissolving rivastigmine tartrate in ultrapure water with a final concentration of 2 mg/mL. The other group received subcutaneous injection of 10 mg/kg of liposomal rivastigmine tartrate, prepared according to Example 1. Blood samples were collected at 15 min, 1, 2, 4, 6, 8, 24, 48, and 72 hours post-injection. Plasma samples were obtained by centrifugation, kept frozen at −80° C. and analyzed using a noncompartmental analysis model in PKSolver (Comput Methods Programs Biomed. 2010; 99(3):306-314)."}, "[4]": {"conditions": "female, Sprague-Dawley, rat, plasma, sc, single subcutaneous injection 10 mg/kg"}}, "note": "Where a name gives a salt, the structure may show the parent alone."}
{"smiles": "CCN(C)C(=O)Oc1cccc([C@H](C)N(C)C)c1", "note": "[Free Rivastigmine, rivastigmine tartrate]", "values": [{"measurement": "rivastigmine released through the dialysis bag", "setting": "[1]", "value": "one hundred"}, {"measurement": "rivastigmine released", "setting": "[2]", "value": 90, "unit": "%"}, {"measurement": "rivastigmine in plasma", "setting": "[3]; 8 hours post injection, FIG. 2", "value": "undetectable"}, {"measurement": "rivastigmine released as indicated by AUC0-t", "setting": "[3]; 72 hours post-injection", "value": 100, "unit": "%"}, {"measurement": "AUC(0-inf)", "setting": "[3]; [4]", "value": 899, "unit": "ng·h/mL"}, {"measurement": "AUC(0-t)", "setting": "[3]; [4]", "value": 896, "unit": "ng·h/mL"}, {"measurement": "Cmax", "setting": "[3]; [4]", "value": 427, "unit": "ng/mL"}, {"measurement": "half-life", "setting": "[3]; female, Sprague-Dawley, rat, plasma, sc, single subcutaneous injection 10 mg/kg, read-out: t½ (converted)", "value": 55.8, "unit": "min"}]}
